Consider 4 molecules from patent publication US6077843A, “Aqueous suspensions of 9-hydroxyrisperidone fatty acid esters” (Janssen Pharmaceutica, N.V., priority 1996, dated 2000).

Some results are limits rather than exact numbers.

The conditions of data set [1]: cited from earlier work.
For data set [2] the following is noted: pamoate salt; cited from earlier work.
The conditions of data set [3]: compared with 9-hydroxy-risperidone; cited from earlier work.
The conditions of data set [4]: cited from earlier work. The source holds these as a separate data set.
A short description of data set [5]: Pharmacokinetic investigations on ester depot formulations (described in words). The data set is classed as in vivo. Particulars: versus other C10-20 alkanoic acid esters.
The nature of data set [6]: Particle size distribution of the milled and sieved ester. The data set is classed as physicochemical. The source says:
# The ester was milled and sieved using appropriate nominal standard test sieves, yielding active ingredient having a particle size distribution as follows: […]

Data set [7] is described as follows: Systemic and local tolerance of depot formulations (described in words). Format: in vivo.
The conditions of data set [8]: compared with risperidone; cited from earlier work.

`Cc1nc2n(c(=O)c1CCN1CCC(c3noc4cc(F)ccc34)CC1)CCCC2` [risperidone pamoate]: in data set [1] (suspension, WO-94/25460), the initial plasma levels entry is “relatively high initial plasma levels”, the “mean duration of action” value is recorded as “inadequate mean duration of action” and the “release of the active ingredient” value is reported as “too rapid”. In addition, the water solubility result in data set [2] is on record as “poorly water-soluble”.
Turning to `Cc1nc2n(c(=O)c1CCN1CCC(c3noc4cc(F)ccc34)CC1)CCCC2` [Risperidone, 3-[2-[4-(6-fluoro-1,2-benzisoxazol-3-yl)-1-piperidinyl]ethyl]-6,7,8,9-tetrahydro-2-methyl-4H-pyridol[1,2-a]pyrimidin-4-one], the “distribution to and elimination from the brain tissues” value in data set [3] is “more rapidly than its metabolite 9-hydroxy-risperidone”. In addition, the therapeutic index result in data set [4] (in vivo) was “relatively narrow therapeutic index”. For the same molecule, the “undesirable side effects on overdosage” value in data set [4] (overdosage) is “most notably extra pyramidal syndrome (EPS) and to a lesser extent hypotension”. Besides, the metabolism result in data set [1] (in vivo) was “metabolized to 9-hydroxyrisperidone”.
For `CCCCCCCCCCCCCCCC(=O)OC1CCCn2c1nc(C)c(CCN1CCC(c3noc4cc(F)ccc34)CC1)c2=O` (stereo not shown) [9-hydroxyrisperidone palmitate ester], the “pharmacokinetic point of view” value in data set [5] was “superior ester”. In data set [6] (10% by volume), the “particle size, 10% of the particles (by volume)” value is given as no less than 15 μm. In addition, in data set [6] (50% by volume), the “particle size, 50% of the particles (by volume)” value was no less than 5 μm. The “particle size, 90% of the particles (by volume)” value in data set [6] (90% by volume) is listed as no less than 0.5 μm. Further, the “difference between small or large prodrug particles” value in data set [7] (suspensions of the palmitate ester in sesame oil) is given as “No significant difference between small or large prodrug particles”. In addition, the “tolerance point of view” value in data set [7] (versus other C10-20 alkanoic acid esters) is “superior ester”.
For the molecule `Cc1nc2n(c(=O)c1CCN1CCC(c3noc4cc(F)ccc34)CC1)CCCC2O` (stereo not shown) [9-hydroxyrisperidone], in data set [8], the “pharmacological profile and potency” value is “comparable with that of the parent drug risperidone”. Further, the elimination half-life entry in data set [1] (compared with risperidone) is “longer elimination half-life”.
